Conditions: Liquid, Transpiration method

CC(C)(C)OCc1ccccc1 [ether, benzyl tert-butyl]
Conditions	vapor or sublimation pressure [kPa]
277.8 K	0.00512
278.1 K	0.00528
279.1 K	0.00577
281.3 K	0.00698
282.9 K	0.00797
284.3 K	0.00893
286.2 K	0.01095
287.3 K	0.01177
287.8 K	0.01209
288.2 K	0.0131
290 K	0.01485
292.2 K	0.0182
293 K	0.01888
293.2 K	0.01908
295.2 K	0.02312
296.2 K	0.02445
297.2 K	0.02652
298 K	0.02843
298.2 K	0.02924
299.2 K	0.03085
300.3 K	0.03419
302.2 K	0.03875
303.1 K	0.04177
303.2 K	0.04305
308 K	0.05754

OCc1ccccc1 [benzenemethanol]
Conditions	vapor or sublimation pressure [kPa]
282.9 K	0.00306
285.9 K	0.00407
288.9 K	0.00532
292.1 K	0.00738
295.3 K	0.00983
298.2 K	0.01251
301.2 K	0.01645
302.8 K	0.01923
305.8 K	0.02541
308.8 K	0.03192
311.7 K	0.03999
314.9 K	0.05172
318.1 K	0.06709
321.1 K	0.08348

From the NIST ThermoML archive (doi:10.1021/je049823k)
